# Measurements as given in patent US10710978B2, “STK4 inhibitors for treatment of hematologic malignancies” (Dana-Farber Cancer Institute, Inc., priority 2015, dated 2020).
# Where two headings read alike, the source gives them in different places.
# Assays:
# Assay in all cases: KiNativ assay
# Assay type in all cases: binding
# IRE1 = IRE1 (Homo sapiens (Human), UniProt O75460); settings: H929 live cell
# Description: (§1) Biochemical IC50s of the compounds of the present disclosure against various kinases were measured in a KiNativ assay. Compounds were screened in duplicate at 10 μM in H929 live cell. IC50 was measured via Mass spectroscopy (MS).
# PIK3C3 = PIK3C3 (Homo sapiens (Human), UniProt Q8NEB9); settings: H929 live cell
# Description: as §1
# p70S6Kb = p70S6Kb (Homo sapiens (Human), UniProt Q9UBS0); settings: H929 live cell
# p70S6Kb, sequence (Q9UBS0 whole entry): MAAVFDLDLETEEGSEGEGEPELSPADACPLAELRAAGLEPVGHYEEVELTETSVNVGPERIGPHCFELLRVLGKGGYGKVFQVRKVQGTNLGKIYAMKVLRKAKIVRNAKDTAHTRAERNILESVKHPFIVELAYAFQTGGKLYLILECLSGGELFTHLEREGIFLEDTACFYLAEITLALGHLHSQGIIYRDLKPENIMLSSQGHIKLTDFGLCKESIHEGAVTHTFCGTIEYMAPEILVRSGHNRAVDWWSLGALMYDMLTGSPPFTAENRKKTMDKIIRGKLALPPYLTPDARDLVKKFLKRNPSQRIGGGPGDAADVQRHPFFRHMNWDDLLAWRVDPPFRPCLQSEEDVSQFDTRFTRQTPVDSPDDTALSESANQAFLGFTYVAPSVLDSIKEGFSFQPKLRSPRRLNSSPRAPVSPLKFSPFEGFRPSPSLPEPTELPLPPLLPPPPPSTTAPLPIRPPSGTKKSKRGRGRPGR
# Description: as §1
# CaMK2g = CaMK2g (Homo sapiens (Human), UniProt Q13555); settings: H929 live cell
# Description: as §1
# PI4KB = PI4KB (Homo sapiens (Human), UniProt Q9UBF8); settings: H929 live cell
# Description: as §1
# STLK3 = STLK3 (Homo sapiens (Human), UniProt Q9UEW8); settings: H929 live cell
# Description: as §1
# KSR1, KSR2 = settings: H929 live cell; for % inhibition: 10 μM, range class
# Description: as §1
# PKD3 = PKD3 (Homo sapiens (Human), UniProt O94806); settings: H929 live cell
# Description: as §1
# PIK3CB = PIK3CB (Homo sapiens (Human), UniProt P42338); settings: H929 live cell
# Description: as §1
# AMPKa1, AMPKa2 = settings: H929 live cell; for % inhibition: 10 μM, range class
# Description: as §1
# AurB = AurB (Homo sapiens (Human), UniProt Q96GD4); settings: H929 live cell
# Description: as §1
# PLK1 = PLK1 (Homo sapiens (Human), UniProt P53350); settings: H929 live cell
# PLK1, sequence (P53350 whole entry): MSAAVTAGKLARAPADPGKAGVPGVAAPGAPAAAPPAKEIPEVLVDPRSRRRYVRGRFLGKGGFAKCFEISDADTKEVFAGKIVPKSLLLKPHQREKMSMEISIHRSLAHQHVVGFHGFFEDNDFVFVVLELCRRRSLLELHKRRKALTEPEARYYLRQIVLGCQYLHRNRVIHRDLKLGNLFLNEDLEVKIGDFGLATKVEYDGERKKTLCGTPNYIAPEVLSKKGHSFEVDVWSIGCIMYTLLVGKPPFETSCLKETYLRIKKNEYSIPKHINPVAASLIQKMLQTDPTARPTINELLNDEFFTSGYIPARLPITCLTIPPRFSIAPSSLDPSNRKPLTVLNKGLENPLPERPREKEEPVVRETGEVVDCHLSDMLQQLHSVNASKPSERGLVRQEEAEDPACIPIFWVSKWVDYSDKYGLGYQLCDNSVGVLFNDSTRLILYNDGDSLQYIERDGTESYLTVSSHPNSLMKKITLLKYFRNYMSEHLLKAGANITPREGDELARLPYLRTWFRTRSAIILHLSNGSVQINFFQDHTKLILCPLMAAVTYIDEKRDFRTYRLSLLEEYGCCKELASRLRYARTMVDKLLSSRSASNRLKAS
# Description: as §1
# IKKa = IKKa (Homo sapiens (Human), UniProt O15111); settings: H929 live cell
# Description: as §1
# NEK8 = NEK8 (Homo sapiens (Human), UniProt Q86SG6); settings: H929 live cell
# Description: as §1
# JAK1 domain2 = JAK1 domain2 (Homo sapiens (Human), UniProt P23458); settings: H929 live cell
# Description: as §1
# eEF2K = eEF2K (Homo sapiens (Human), UniProt O00418); settings: H929 live cell
# Description: as §1
# CaMKK2 = CaMKK2 (Homo sapiens (Human), UniProt Q96RR4); settings: H929 live cell
# CaMKK2, sequence (Q96RR4 whole entry): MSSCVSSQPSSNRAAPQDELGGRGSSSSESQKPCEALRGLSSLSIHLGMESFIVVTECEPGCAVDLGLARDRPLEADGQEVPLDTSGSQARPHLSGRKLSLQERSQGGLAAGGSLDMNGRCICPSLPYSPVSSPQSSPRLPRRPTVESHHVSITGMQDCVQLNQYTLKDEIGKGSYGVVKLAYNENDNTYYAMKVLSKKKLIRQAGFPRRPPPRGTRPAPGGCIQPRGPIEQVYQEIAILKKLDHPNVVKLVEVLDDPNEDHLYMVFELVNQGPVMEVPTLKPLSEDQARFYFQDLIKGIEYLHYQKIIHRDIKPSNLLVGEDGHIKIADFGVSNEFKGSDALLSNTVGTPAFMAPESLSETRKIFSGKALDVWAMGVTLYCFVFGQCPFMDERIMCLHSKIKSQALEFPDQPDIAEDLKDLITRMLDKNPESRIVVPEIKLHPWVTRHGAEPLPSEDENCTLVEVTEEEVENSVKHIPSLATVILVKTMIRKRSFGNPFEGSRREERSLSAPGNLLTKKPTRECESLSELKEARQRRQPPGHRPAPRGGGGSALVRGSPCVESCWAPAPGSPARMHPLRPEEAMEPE
# Description: as §1
# TYK2 domain2 = TYK2 domain2 (Homo sapiens (Human), UniProt P29597); settings: H929 live cell
# TYK2 domain2, sequence (P29597 whole entry, the tested form may be a part): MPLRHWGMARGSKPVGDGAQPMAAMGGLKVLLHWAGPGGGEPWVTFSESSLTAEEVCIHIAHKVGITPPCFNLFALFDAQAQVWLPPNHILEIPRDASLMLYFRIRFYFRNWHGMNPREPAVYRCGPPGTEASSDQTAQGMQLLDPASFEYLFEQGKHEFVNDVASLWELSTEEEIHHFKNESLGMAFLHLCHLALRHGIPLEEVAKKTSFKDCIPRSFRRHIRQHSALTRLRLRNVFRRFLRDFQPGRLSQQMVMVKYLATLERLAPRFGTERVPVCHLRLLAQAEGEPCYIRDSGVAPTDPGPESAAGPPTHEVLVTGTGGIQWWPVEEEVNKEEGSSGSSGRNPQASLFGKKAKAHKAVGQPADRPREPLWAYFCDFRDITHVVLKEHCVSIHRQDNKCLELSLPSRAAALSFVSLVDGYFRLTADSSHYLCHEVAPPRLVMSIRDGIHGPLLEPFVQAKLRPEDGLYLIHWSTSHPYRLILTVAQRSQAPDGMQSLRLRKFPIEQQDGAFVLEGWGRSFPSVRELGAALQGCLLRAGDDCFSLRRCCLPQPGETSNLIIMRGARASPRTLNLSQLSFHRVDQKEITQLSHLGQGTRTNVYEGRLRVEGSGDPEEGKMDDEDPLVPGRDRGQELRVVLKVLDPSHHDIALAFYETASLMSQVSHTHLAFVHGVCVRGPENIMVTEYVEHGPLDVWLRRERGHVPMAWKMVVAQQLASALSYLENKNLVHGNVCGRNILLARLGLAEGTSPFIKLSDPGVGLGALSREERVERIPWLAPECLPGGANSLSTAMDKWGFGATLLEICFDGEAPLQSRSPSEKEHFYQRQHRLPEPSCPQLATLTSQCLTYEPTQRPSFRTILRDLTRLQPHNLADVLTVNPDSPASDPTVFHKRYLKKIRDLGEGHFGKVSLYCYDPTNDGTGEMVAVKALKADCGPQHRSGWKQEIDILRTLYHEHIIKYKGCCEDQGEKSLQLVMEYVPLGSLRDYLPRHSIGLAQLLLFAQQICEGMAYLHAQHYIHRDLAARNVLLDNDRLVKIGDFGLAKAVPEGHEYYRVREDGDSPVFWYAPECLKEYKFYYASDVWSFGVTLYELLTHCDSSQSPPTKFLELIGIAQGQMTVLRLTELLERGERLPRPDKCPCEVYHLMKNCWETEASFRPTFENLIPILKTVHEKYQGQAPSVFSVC
# Description: as §1
# CK1g2 = CK1g2 (Homo sapiens (Human), UniProt P78368); settings: H929 live cell
# Description: as §1
# NEK1 = NEK1 (Homo sapiens (Human), UniProt Q96PY6); settings: H929 live cell
# Description: as §1
# MARK3 = MARK3 (Homo sapiens (Human), UniProt P27448); settings: H929 live cell
# Description: as §1
# MAP3K4 = MAP3K4 (Homo sapiens (Human), UniProt Q9Y6R4); settings: H929 live cell
# Description: as §1
# OSR1 = OSR1 (Homo sapiens (Human), UniProt O95747); settings: H929 live cell
# Description: as §1
# NEK7 = NEK7 (Homo sapiens (Human), UniProt Q8TDX7); settings: H929 live cell
# NEK7, sequence (Q8TDX7 whole entry): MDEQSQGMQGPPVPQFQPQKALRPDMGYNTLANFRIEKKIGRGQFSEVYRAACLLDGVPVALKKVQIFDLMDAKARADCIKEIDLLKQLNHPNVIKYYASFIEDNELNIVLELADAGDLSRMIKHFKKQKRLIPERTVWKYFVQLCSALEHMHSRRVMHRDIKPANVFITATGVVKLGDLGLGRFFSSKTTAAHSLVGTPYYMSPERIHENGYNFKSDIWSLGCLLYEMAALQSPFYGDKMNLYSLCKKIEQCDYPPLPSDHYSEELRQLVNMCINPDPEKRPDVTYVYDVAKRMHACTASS
# Description: as §1
# JAK3 domain2 = JAK3 domain2 (Homo sapiens (Human), UniProt P52333); settings: H929 live cell
# Description: as §1
# MAP3K5 = MAP3K5 (Homo sapiens (Human), UniProt Q99683); settings: H929 live cell
# Description: as §1
# GSK3B = GSK3B (Homo sapiens (Human), UniProt P49841); settings: H929 live cell
# GSK3B, sequence (P49841 whole entry): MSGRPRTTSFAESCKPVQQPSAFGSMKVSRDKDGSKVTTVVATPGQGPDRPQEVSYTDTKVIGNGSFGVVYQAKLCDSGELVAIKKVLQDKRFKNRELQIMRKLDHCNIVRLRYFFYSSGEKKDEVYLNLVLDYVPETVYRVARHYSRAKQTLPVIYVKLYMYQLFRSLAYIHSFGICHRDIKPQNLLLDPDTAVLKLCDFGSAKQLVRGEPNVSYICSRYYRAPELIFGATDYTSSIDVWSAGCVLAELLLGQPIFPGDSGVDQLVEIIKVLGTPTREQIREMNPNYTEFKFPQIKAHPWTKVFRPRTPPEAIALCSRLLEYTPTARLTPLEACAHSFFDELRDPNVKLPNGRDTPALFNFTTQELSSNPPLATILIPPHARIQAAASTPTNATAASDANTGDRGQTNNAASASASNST
# Description: as §1
# FER = FER (Homo sapiens (Human), UniProt P16591); settings: H929 live cell
# Description: as §1
# MST2 = MST2 (Homo sapiens (Human), UniProt Q13188); settings: H929 live cell
# MST2, sequence (Q13188 whole entry): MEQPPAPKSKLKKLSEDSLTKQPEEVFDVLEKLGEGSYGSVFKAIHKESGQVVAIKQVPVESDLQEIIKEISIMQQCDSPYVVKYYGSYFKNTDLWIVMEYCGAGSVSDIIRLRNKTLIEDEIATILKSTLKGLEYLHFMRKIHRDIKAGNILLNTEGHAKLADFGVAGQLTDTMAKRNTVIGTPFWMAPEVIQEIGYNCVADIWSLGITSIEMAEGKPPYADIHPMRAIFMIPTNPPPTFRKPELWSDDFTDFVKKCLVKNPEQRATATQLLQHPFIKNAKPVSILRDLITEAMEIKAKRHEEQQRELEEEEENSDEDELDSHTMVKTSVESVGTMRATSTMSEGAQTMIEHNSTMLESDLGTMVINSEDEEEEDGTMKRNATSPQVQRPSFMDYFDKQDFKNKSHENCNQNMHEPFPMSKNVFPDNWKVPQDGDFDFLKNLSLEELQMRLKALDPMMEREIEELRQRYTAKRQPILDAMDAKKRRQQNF
# Description: as §1
# PKCz = PKCz (Homo sapiens (Human), UniProt Q05513); settings: H929 live cell
# Description: as §1
# DGKH = DGKH (Homo sapiens (Human), UniProt Q86XP1); settings: H929 live cell
# Description: as §1
# HPK1 = HPK1 (Homo sapiens (Human), UniProt Q92918); settings: H929 live cell
# Description: as §1
# AKT1 = AKT1 (Homo sapiens (Human), UniProt P31749); settings: H929 live cell
# Description: as §1
# [1] = range class, read-out: % inhibition
# IRE1, sequence (O75460 19-977): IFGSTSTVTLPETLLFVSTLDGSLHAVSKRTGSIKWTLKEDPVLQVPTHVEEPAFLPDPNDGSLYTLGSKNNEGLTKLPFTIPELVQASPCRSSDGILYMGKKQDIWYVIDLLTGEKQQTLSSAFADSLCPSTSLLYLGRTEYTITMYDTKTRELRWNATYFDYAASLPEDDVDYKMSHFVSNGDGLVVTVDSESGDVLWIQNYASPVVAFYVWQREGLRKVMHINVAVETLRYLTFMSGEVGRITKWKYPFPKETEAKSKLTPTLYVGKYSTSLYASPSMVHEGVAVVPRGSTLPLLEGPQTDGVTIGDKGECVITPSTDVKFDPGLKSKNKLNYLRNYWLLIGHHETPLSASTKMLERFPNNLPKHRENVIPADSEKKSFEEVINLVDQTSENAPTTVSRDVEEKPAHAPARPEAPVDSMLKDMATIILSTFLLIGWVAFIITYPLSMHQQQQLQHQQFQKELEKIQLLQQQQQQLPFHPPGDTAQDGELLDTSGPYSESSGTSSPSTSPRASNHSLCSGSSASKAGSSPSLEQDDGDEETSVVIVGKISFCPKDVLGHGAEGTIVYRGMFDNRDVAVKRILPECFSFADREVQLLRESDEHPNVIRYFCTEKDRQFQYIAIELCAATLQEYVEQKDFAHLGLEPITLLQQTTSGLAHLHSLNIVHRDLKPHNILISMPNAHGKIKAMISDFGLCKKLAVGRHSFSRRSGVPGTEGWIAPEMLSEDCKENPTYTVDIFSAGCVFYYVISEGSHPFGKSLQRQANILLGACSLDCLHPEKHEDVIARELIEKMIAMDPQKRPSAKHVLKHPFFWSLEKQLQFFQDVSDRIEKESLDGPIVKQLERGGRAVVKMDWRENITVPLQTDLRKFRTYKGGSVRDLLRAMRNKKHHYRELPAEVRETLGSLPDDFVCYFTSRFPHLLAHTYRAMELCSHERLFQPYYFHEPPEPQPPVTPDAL
structure (smiles),measurement,setting,value
"Nc1ncc(-c2ccc(NS(=O)(=O)C3CC3)cc2F)cc1-c1ccc2c(c1)CCNC2=O [Compound I-51, N-(4-(6-amino-5-(1-oxo-1,2,3,4-tetrahydroisoquinolin-6-yl)pyridin-3-yl)-3-fluorophenyl) cyclopropanesulfonamide]",inhibition at 10 µM,IRE1; [1],0%
same,inhibition at 10 µM,IRE1; read-out: inhibition (10 μM),-43.1%
same,inhibition at 10 µM,PIK3C3; [1],0%
same,inhibition at 10 µM,PIK3C3; read-out: inhibition (10 μM),-13.2%
same,inhibition at 10 µM,p70S6Kb; [1],0%
same,inhibition at 10 µM,p70S6Kb; read-out: inhibition (10 μM),5.5%
same,inhibition at 10 µM,CaMK2g; [1],0%
same,inhibition at 10 µM,CaMK2g; read-out: inhibition (10 μM),-6.4%
same,inhibition at 10 µM,PI4KB; [1],0%
same,inhibition at 10 µM,PI4KB; read-out: inhibition (10 μM),13%
same,inhibition at 10 µM,STLK3; [1],0%
same,inhibition at 10 µM,STLK3; read-out: inhibition (10 μM),-5%
same,% inhibition,"KSR1, KSR2",0.0%
same,inhibition (10 μM),"KSR1, KSR2",−5.2%
same,inhibition at 10 µM,PKD3; [1],50 to 75%
same,inhibition at 10 µM,PKD3; read-out: inhibition (10 μM),74.8%
same,inhibition at 10 µM,PIK3CB; [1],0%
same,inhibition at 10 µM,PIK3CB; read-out: inhibition (10 μM),7.2%
same,% inhibition,"AMPKa1, AMPKa2",0.0%
same,inhibition (10 μM),"AMPKa1, AMPKa2",−20.5%
same,inhibition at 10 µM,AurB; [1],0%
same,inhibition at 10 µM,AurB; read-out: inhibition (10 μM),31.8%
same,inhibition at 10 µM,PLK1; [1],0%
same,inhibition at 10 µM,PLK1; read-out: inhibition (10 μM),-20.6%
same,inhibition at 10 µM,IKKa; [1],0%
same,inhibition at 10 µM,IKKa; read-out: inhibition (10 μM),-17.3%
same,inhibition at 10 µM,NEK8; [1],0%
same,inhibition at 10 µM,NEK8; read-out: inhibition (10 μM),-8.1%
same,inhibition at 10 µM,JAK1 domain2; [1],0%
same,inhibition at 10 µM,JAK1 domain2; read-out: inhibition (10 μM),-6.4%
same,inhibition at 10 µM,eEF2K; [1],0%
same,inhibition at 10 µM,eEF2K; read-out: inhibition (10 μM),7.7%
same,inhibition at 10 µM,CaMKK2; [1],75 to 90%
same,inhibition at 10 µM,CaMKK2; read-out: inhibition (10 μM),78.5%
same,inhibition at 10 µM,TYK2 domain2; [1],0%
same,inhibition at 10 µM,TYK2 domain2; read-out: inhibition (10 μM),-23.9%
same,inhibition at 10 µM,CK1g2; [1],75 to 90%
same,inhibition at 10 µM,CK1g2; read-out: inhibition (10 μM),84.1%
same,inhibition at 10 µM,NEK1; [1],0%
same,inhibition at 10 µM,NEK1; read-out: inhibition (10 μM),30.2%
same,inhibition at 10 µM,MARK3; [1],0%
same,inhibition at 10 µM,MARK3; read-out: inhibition (10 μM),4.8%
same,inhibition at 10 µM,MAP3K4; [1],0%
same,inhibition at 10 µM,MAP3K4; read-out: inhibition (10 μM),24.2%
same,inhibition at 10 µM,OSR1; [1],0%
same,inhibition at 10 µM,OSR1; read-out: inhibition (10 μM),8.8%
same,inhibition at 10 µM,NEK7; [1],0%
same,inhibition at 10 µM,NEK7; read-out: inhibition (10 μM),-50.3%
same,inhibition at 10 µM,JAK3 domain2; [1],0%
same,inhibition at 10 µM,JAK3 domain2; read-out: inhibition (10 μM),13.4%
same,inhibition at 10 µM,MAP3K5; [1],0%
same,inhibition at 10 µM,MAP3K5; read-out: inhibition (10 μM),16.3%
same,inhibition at 10 µM,GSK3B; [1],> 90%
same,inhibition at 10 µM,GSK3B; read-out: inhibition (10 μM),90.2%
same,inhibition at 10 µM,FER; [1],0%
same,inhibition at 10 µM,FER; read-out: inhibition (10 μM),13.4%
same,inhibition at 10 µM,MST2; [1],> 90%
same,inhibition at 10 µM,MST2; read-out: inhibition (10 μM),95.3%
same,inhibition at 10 µM,PKCz; [1],0%
same,inhibition at 10 µM,PKCz; read-out: inhibition (10 μM),2.1%
same,inhibition at 10 µM,DGKH; [1],0%
same,inhibition at 10 µM,DGKH; read-out: inhibition (10 μM),2.7%
same,inhibition at 10 µM,HPK1; [1],75 to 90%
same,inhibition at 10 µM,HPK1; read-out: inhibition (10 μM),83.5%
same,inhibition at 10 µM,AKT1; [1],0%
same,inhibition at 10 µM,AKT1; read-out: inhibition (10 μM),-15.2%
"Nc1ncc(-c2ccc(NS(=O)(=O)C3CC3)cc2OC2CCCCC2)cc1-c1ccc2c(c1)CCNC2=O [Compound I-65, N-(4-(6-amino-5-(1-oxo-1,2,3,4-tetrahydroisoquinolin-6-yl)pyridin-3-yl)-3-(cyclohexyloxy)phenyl) cyclopropanesulfonamide]",inhibition at 10 µM,IRE1; [1],0%
same,inhibition at 10 µM,IRE1; read-out: inhibition (10 μM),-6.3%
same,inhibition at 10 µM,PIK3C3; [1],0%
same,inhibition at 10 µM,PIK3C3; read-out: inhibition (10 μM),-15%
same,inhibition at 10 µM,p70S6Kb; [1],0%
same,inhibition at 10 µM,p70S6Kb; read-out: inhibition (10 μM),32%
same,inhibition at 10 µM,CaMK2g; [1],0%
same,inhibition at 10 µM,CaMK2g; read-out: inhibition (10 μM),-12%
same,inhibition at 10 µM,PI4KB; [1],0%
same,inhibition at 10 µM,PI4KB; read-out: inhibition (10 μM),8.6%
same,inhibition at 10 µM,STLK3; [1],0%
same,inhibition at 10 µM,STLK3; read-out: inhibition (10 μM),31.4%
same,% inhibition,"KSR1, KSR2",0.0%
same,inhibition (10 μM),"KSR1, KSR2",−5.7%
same,inhibition at 10 µM,PKD3; [1],0%
same,inhibition at 10 µM,PKD3; read-out: inhibition (10 μM),-24.2%
same,inhibition at 10 µM,PIK3CB; [1],0%
same,inhibition at 10 µM,PIK3CB; read-out: inhibition (10 μM),14.6%
same,% inhibition,"AMPKa1, AMPKa2",35-40%
same,inhibition (10 μM),"AMPKa1, AMPKa2",39.0%
same,inhibition at 10 µM,AurB; [1],0%
same,inhibition at 10 µM,AurB; read-out: inhibition (10 μM),21%
same,inhibition at 10 µM,PLK1; [1],0%
same,inhibition at 10 µM,PLK1; read-out: inhibition (10 μM),-10.1%
same,inhibition at 10 µM,IKKa; [1],0%
same,inhibition at 10 µM,IKKa; read-out: inhibition (10 μM),-34.3%
same,inhibition at 10 µM,NEK8; [1],0%
same,inhibition at 10 µM,NEK8; read-out: inhibition (10 μM),-1.7%
same,inhibition at 10 µM,JAK1 domain2; [1],0%
same,inhibition at 10 µM,JAK1 domain2; read-out: inhibition (10 μM),10.1%
same,inhibition at 10 µM,eEF2K; [1],0%
same,inhibition at 10 µM,eEF2K; read-out: inhibition (10 μM),-21.7%
same,inhibition at 10 µM,CaMKK2; [1],75 to 90%
same,inhibition at 10 µM,CaMKK2; read-out: inhibition (10 μM),85.6%
same,inhibition at 10 µM,TYK2 domain2; [1],0%
same,inhibition at 10 µM,TYK2 domain2; read-out: inhibition (10 μM),-8.4%
same,inhibition at 10 µM,CK1g2; [1],50 to 75%
same,inhibition at 10 µM,CK1g2; read-out: inhibition (10 μM),74.5%
same,inhibition at 10 µM,NEK1; [1],0%
same,inhibition at 10 µM,NEK1; read-out: inhibition (10 μM),9.3%
same,inhibition at 10 µM,MARK3; [1],0%
same,inhibition at 10 µM,MARK3; read-out: inhibition (10 μM),-22.7%
same,inhibition at 10 µM,MAP3K4; [1],0%
same,inhibition at 10 µM,MAP3K4; read-out: inhibition (10 μM),10.3%
same,inhibition at 10 µM,OSR1; [1],0%
same,inhibition at 10 µM,OSR1; read-out: inhibition (10 μM),26.8%
same,inhibition at 10 µM,NEK7; [1],0%
same,inhibition at 10 µM,NEK7; read-out: inhibition (10 μM),-80%
same,inhibition at 10 µM,JAK3 domain2; [1],50 to 75%
same,inhibition at 10 µM,JAK3 domain2; read-out: inhibition (10 μM),52.1%
same,inhibition at 10 µM,MAP3K5; [1],0%
same,inhibition at 10 µM,MAP3K5; read-out: inhibition (10 μM),-12.4%
same,inhibition at 10 µM,GSK3B; [1],> 90%
same,inhibition at 10 µM,GSK3B; read-out: inhibition (10 μM),90%
same,inhibition at 10 µM,FER; [1],50 to 75%
same,inhibition at 10 µM,FER; read-out: inhibition (10 μM),63.6%
same,inhibition at 10 µM,MST2; [1],> 90%
same,inhibition at 10 µM,MST2; read-out: inhibition (10 μM),97.3%
same,inhibition at 10 µM,PKCz; [1],0%
same,inhibition at 10 µM,PKCz; read-out: inhibition (10 μM),-12.4%
same,inhibition at 10 µM,DGKH; [1],0%
same,inhibition at 10 µM,DGKH; read-out: inhibition (10 μM),7.3%
same,inhibition at 10 µM,HPK1; [1],> 90%
same,inhibition at 10 µM,HPK1; read-out: inhibition (10 μM),95.5%
same,inhibition at 10 µM,AKT1; [1],0%
same,inhibition at 10 µM,AKT1; read-out: inhibition (10 μM),1.6%
